Data taken from article PMC8810938 (Clinical & Translational Immunology, 2022).

Tests used:
[1] = system: TGF‐β1‐stimulated human fibroblasts; assay: Induction assay: fibrotic marker mRNA; format: cell-based; conditions: primary human fibroblasts, TGF‐β1 5 ng mL^−1, 48 h, only at the highest test concentration 100 nM; qPCR; n = 4
[2] = biological target: T1, CXCR3A‐transfected CHO cells (human CXCR3A) (Homo sapiens, UniProt P49682); conditions: CXCR3‐transfected CHO cells; n = 4; cited from earlier work
T1 sequence (P49682 1-368): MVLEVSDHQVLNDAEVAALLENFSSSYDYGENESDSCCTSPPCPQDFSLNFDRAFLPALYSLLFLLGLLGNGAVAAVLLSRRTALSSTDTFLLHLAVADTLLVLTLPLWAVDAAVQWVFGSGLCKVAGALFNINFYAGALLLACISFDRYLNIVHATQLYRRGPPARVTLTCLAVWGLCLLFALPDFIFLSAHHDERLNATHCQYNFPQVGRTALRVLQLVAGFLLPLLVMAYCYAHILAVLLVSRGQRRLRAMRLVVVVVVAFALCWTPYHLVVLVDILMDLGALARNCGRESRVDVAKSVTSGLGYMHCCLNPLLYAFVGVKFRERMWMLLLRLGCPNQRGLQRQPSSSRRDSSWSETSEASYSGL

For “CXCL9(1–103): authentic full‐length human CXCL9 chemokine of 103 amino acids (Peprotech)”, the “collagen III mRNA expression” value [1] is given as “significant reduction” and the calcium response [2] is given as 598.1 ± 22.9 nM.
